Assay in all cases: relative viability (nuclei count vs DMSO), 5 days (fraction); higher = more cells survive
Compound in assay [1]: C[As](C)SC[C@H](NC(=O)CC[C@H](N)C(=O)O)C(=O)NCC(=O)O [Darinaparsin] + CC(=O)c1c(C)c2cnc(Nc3ccc(N4CCNCC4)cn3)nc2n(C2CCCC2)c1=O [Palbociclib] (partner 0.5 µM)
The method in brief:
(§1)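 Relative viability equals treated-well nuclei counts divided by vehicle-well nuclei counts. Counts came from 4× images of lung cancer cell lines grown in 1536-well plates for 5 days after pin-tool dosing on the day after seeding. Dosing used one drug alone or a fixed anchor-drug dose plus five library-drug doses (not always all listed) in √10 steps, and values are medians of duplicate plates.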

Compound in the assay “Darinaparsin + Foretinib”: C[As](C)SC[C@H](NC(=O)CC[C@H](N)C(=O)O)C(=O)NCC(=O)O [Darinaparsin] + COc1cc2c(Oc3ccc(NC(=O)C4(C(=O)Nc5ccc(F)cc5)CC4)cc3F)ccnc2cc1OCCCN1CCOCC1 [Foretinib] (partner 0.25 µM)
The method in brief:
as §1

Compound in assay [2]: C[As](C)SC[C@H](NC(=O)CC[C@H](N)C(=O)O)C(=O)NCC(=O)O [Darinaparsin] + CS(=O)(=O)N1CCN(Cc2cc3nc(-c4cccc5[nH]ncc45)nc(N4CCOCC4)c3s2)CC1 [Pictilisib] (partner 1 µM)
The method in brief: as §1

Compound in the assay “AZ628 + OSI-027”: CC1=C(C=C(C=C1)NC(=O)C2=CC(=CC=C2)C(C)(C)C#N)NC3=CC4=C(C=C3)N=CN(C4=O)C [AZ628] + COc1cccc2cc(-c3nc([C@H]4CC[C@H](C(=O)O)CC4)n4ncnc(N)c34)[nH]c12 [OSI-027] (partner 0.5 µM)
The method, boiled down: as §1

Consider 8 cell lines from the supplement of paper PMC10307832.

Regarding ChaGo-K-1, the relative viability was determined as 0.95 in assay [1] (first compound 0.08 µM); 0.958 in assay [1] (first compound 0.8 µM); 0.856 in assay [1] (first compound 2.53 µM); 1.06 in assay [1] (first compound 8 µM); 0.962 with Darinaparsin + Foretinib (first compound 0.08 µM); 0.97 in the assay with Darinaparsin + Foretinib (first compound 0.8 µM). The relative viability with Darinaparsin + Foretinib (first compound 2.53 µM) was found to be 0.873; in the assay with Darinaparsin + Foretinib (first compound 8 µM), 1.13; in assay [2] (first compound 0.08 µM), 0.947; in assay [2] (first compound 0.8 µM), 0.693; in assay [2] (first compound 2.53 µM), 0.732; in assay [2] (first compound 8 µM), 0.662. Besides, the relative viability was 0.575 with AZ628 + OSI-027 (first compound 0.08 µM); 0.525 with AZ628 + OSI-027 (first compound 0.253 µM); 0.496 with AZ628 + OSI-027 (first compound 0.8 µM); 0.556 with AZ628 + OSI-027 (first compound 2.53 µM); 0.388 in the assay with AZ628 + OSI-027 (first compound 8 µM).
On to 201T, for which the relative viability came out at 0.345 in assay [1] (first compound 0.08 µM); 0.342 in assay [1] (first compound 0.8 µM); 0.363 in assay [1] (first compound 2.53 µM); 0.368 in assay [1] (first compound 8 µM); 1.2 in the assay with Darinaparsin + Foretinib (first compound 0.08 µM); 1.15 in the assay with Darinaparsin + Foretinib (first compound 0.8 µM). In addition, the relative viability stood at 1.19 in the assay with Darinaparsin + Foretinib (first compound 2.53 µM); 1.03 with Darinaparsin + Foretinib (first compound 8 µM); 0.757 in assay [2] (first compound 0.08 µM); 0.622 in assay [2] (first compound 0.8 µM); 0.623 in assay [2] (first compound 2.53 µM); 0.767 in assay [2] (first compound 8 µM). For the same cell line, the relative viability in the assay with AZ628 + OSI-027 (first compound 0.08 µM) stood at 0.838; with AZ628 + OSI-027 (first compound 0.253 µM), 0.707; in the assay with AZ628 + OSI-027 (first compound 0.8 µM), 0.689; in the assay with AZ628 + OSI-027 (first compound 2.53 µM) it was 0.761; in the assay with AZ628 + OSI-027 (first compound 8 µM) it was 0.849.
As for EMC-BAC-2, the relative viability in assay [1] (first compound 0.08 µM) was determined as 0.516; in assay [1] (first compound 0.8 µM) it was 0.491; in assay [1] (first compound 2.53 µM), 0.515; in assay [1] (first compound 8 µM), 0.54; in the assay with Darinaparsin + Foretinib (first compound 0.08 µM), 1.08; with Darinaparsin + Foretinib (first compound 0.8 µM) it was 0.958. Besides, the relative viability with Darinaparsin + Foretinib (first compound 2.53 µM) came out at 1.01; with Darinaparsin + Foretinib (first compound 8 µM) it was 1.16; in assay [2] (first compound 0.08 µM), 0.607; in assay [2] (first compound 0.8 µM) it was 0.501; in assay [2] (first compound 2.53 µM) it was 0.582; in assay [2] (first compound 8 µM) it was 0.568. The relative viability with AZ628 + OSI-027 (first compound 0.08 µM) is 0.397; with AZ628 + OSI-027 (first compound 0.253 µM) it was 0.425; with AZ628 + OSI-027 (first compound 0.8 µM) it was 0.477; with AZ628 + OSI-027 (first compound 2.53 µM) it was 0.436; with AZ628 + OSI-027 (first compound 8 µM), 0.448.
Consider NCI-H2405, for which the relative viability in assay [1] (first compound 0.08 µM) is 0.532; in assay [1] (first compound 0.8 µM), 0.492; in assay [1] (first compound 2.53 µM), 0.473; in assay [1] (first compound 8 µM), 0.606; in the assay with Darinaparsin + Foretinib (first compound 0.08 µM), 0.994; with Darinaparsin + Foretinib (first compound 0.8 µM), 1.05. Besides, the relative viability amounted to 0.929 with Darinaparsin + Foretinib (first compound 2.53 µM); 1.07 with Darinaparsin + Foretinib (first compound 8 µM); 0.5 in assay [2] (first compound 0.08 µM); 0.443 in assay [2] (first compound 0.8 µM); 0.422 in assay [2] (first compound 2.53 µM); 0.537 in assay [2] (first compound 8 µM). The relative viability was 0.482 in the assay with AZ628 + OSI-027 (first compound 0.08 µM); 0.37 with AZ628 + OSI-027 (first compound 0.253 µM); 0.393 with AZ628 + OSI-027 (first compound 0.8 µM); 0.353 with AZ628 + OSI-027 (first compound 2.53 µM); 0.345 in the assay with AZ628 + OSI-027 (first compound 8 µM).
For the cell line HOP-62, the relative viability in assay [1] (first compound 0.08 µM) stood at 0.541; in assay [1] (first compound 0.8 µM), 0.411; in assay [1] (first compound 2.53 µM) it was 0.385; in assay [1] (first compound 8 µM) it was 0.593; with Darinaparsin + Foretinib (first compound 0.08 µM), 1.2; with Darinaparsin + Foretinib (first compound 0.8 µM), 1.16. Besides, the relative viability with Darinaparsin + Foretinib (first compound 2.53 µM) came out at 0.969; in the assay with Darinaparsin + Foretinib (first compound 8 µM), 1.13; in assay [2] (first compound 0.08 µM) it was 0.99; in assay [2] (first compound 0.8 µM) it was 0.588; in assay [2] (first compound 2.53 µM), 0.774; in assay [2] (first compound 8 µM), 1.04. The relative viability came to 0.828 in the assay with AZ628 + OSI-027 (first compound 0.08 µM); 0.857 with AZ628 + OSI-027 (first compound 0.253 µM); 0.831 with AZ628 + OSI-027 (first compound 0.8 µM); 0.857 with AZ628 + OSI-027 (first compound 2.53 µM); 0.43 with AZ628 + OSI-027 (first compound 8 µM).
On to NCI-H1651, for which the relative viability is 0.515 in assay [1] (first compound 0.08 µM); 0.531 in assay [1] (first compound 0.8 µM); 0.527 in assay [1] (first compound 2.53 µM); 0.522 in assay [1] (first compound 8 µM); 0.951 with Darinaparsin + Foretinib (first compound 0.08 µM); 0.885 with Darinaparsin + Foretinib (first compound 0.8 µM). Moreover, the relative viability with Darinaparsin + Foretinib (first compound 2.53 µM) is 0.851; in the assay with Darinaparsin + Foretinib (first compound 8 µM), 0.777; in assay [2] (first compound 0.08 µM), 0.721; in assay [2] (first compound 0.8 µM) it was 0.554; in assay [2] (first compound 2.53 µM), 0.471; in assay [2] (first compound 8 µM), 0.865. The relative viability in the assay with AZ628 + OSI-027 (first compound 0.08 µM) worked out at 0.577; in the assay with AZ628 + OSI-027 (first compound 0.253 µM) it was 0.703; in the assay with AZ628 + OSI-027 (first compound 0.8 µM), 0.649; with AZ628 + OSI-027 (first compound 2.53 µM), 0.579; with AZ628 + OSI-027 (first compound 8 µM), 0.659.
For NCI-H2085, the relative viability in assay [1] (first compound 0.08 µM) is 0.466; in assay [1] (first compound 0.8 µM) it was 0.482; in assay [1] (first compound 2.53 µM) it was 0.508; in assay [1] (first compound 8 µM) it was 0.457; with Darinaparsin + Foretinib (first compound 0.08 µM), 1.12; in the assay with Darinaparsin + Foretinib (first compound 0.8 µM), 0.975. For the same cell line, the relative viability was found to be 0.863 in the assay with Darinaparsin + Foretinib (first compound 2.53 µM); 0.902 with Darinaparsin + Foretinib (first compound 8 µM); 0.553 in assay [2] (first compound 0.08 µM); 0.419 in assay [2] (first compound 0.8 µM); 0.455 in assay [2] (first compound 2.53 µM); 0.44 in assay [2] (first compound 8 µM). Moreover, the relative viability with AZ628 + OSI-027 (first compound 0.08 µM) stood at 0.913; with AZ628 + OSI-027 (first compound 0.253 µM), 0.754; in the assay with AZ628 + OSI-027 (first compound 0.8 µM) it was 0.803; with AZ628 + OSI-027 (first compound 2.53 µM), 0.667; with AZ628 + OSI-027 (first compound 8 µM), 0.332.
In the case of NCI-H2023, the relative viability in assay [1] (first compound 0.08 µM) amounted to 0.393; in assay [1] (first compound 0.8 µM), 0.333; in assay [1] (first compound 2.53 µM), 0.344; in assay [1] (first compound 8 µM) it was 0.431; with Darinaparsin + Foretinib (first compound 0.08 µM) it was 0.847; in the assay with Darinaparsin + Foretinib (first compound 0.8 µM), 0.78. Further, the relative viability came out at 0.821 with Darinaparsin + Foretinib (first compound 2.53 µM); 0.904 in the assay with Darinaparsin + Foretinib (first compound 8 µM); 0.284 in assay [2] (first compound 0.08 µM); 0.193 in assay [2] (first compound 0.8 µM); 0.217 in assay [2] (first compound 2.53 µM); 0.262 in assay [2] (first compound 8 µM). The relative viability in the assay with AZ628 + OSI-027 (first compound 0.08 µM) was found to be 0.369; with AZ628 + OSI-027 (first compound 0.253 µM), 0.374; with AZ628 + OSI-027 (first compound 0.8 µM) it was 0.329; with AZ628 + OSI-027 (first compound 2.53 µM) it was 0.309; with AZ628 + OSI-027 (first compound 8 µM) it was 0.234.
